Source: US20100022476A1, “PYRAZOLYLAMINO SUBSTITUTED QUINAZOLES FOR THE TREATMENT OF CANCER” (ASTRAZENECA AB, priority 2004, published 2010)

Assays:
[1] = tested on: SW620 human colon tumour cells; assay: In vitro cell phenotype and substrate phosphorylation assay (phosphohistone H3); format: cell-based; settings: SW-620, 24 hours of treatment, read-out: EC50 for inhibition of phosphohistone H3 levels
Protocol: (c) In Vitro Cell Phenotype and Substrate Phosphorylation Assay
This assay is used to determine the cellular effects of compounds on SW620 human colon tumour cells in vitro. Compounds typically cause inhibition of levels of phosphohistone H3 and an increase in the nuclear area of the cells.
10^4 SW620 cells per well were plated in 100 μl DMEM media (containing 10% FCS and 1% glutamine) (DMEM is Dulbecco's Modified Eagle's Medium (Sigma D6546)) in costar 96 well plates and left overnight at 37° C. and 5% CO2 to adhere. The cells were then dosed with compound diluted in media (50 μl is added to each well to give 0.00015μ-1 μM concentrations of compound) and after 24 hours of treatment with compound, the cells were fixed.
The cells were first examined using a light microscope and any cellular changes in morphology were noted. 100 μl of 3.7% formaldehyde was then added to each well, and the plate was left for at least 30 minutes at room temperature. Decanting and tapping the plate on a paper towel removed the fixative and plates were then washed once in PBS (Dulbecco's Phosphate Buffered Saline (Sigma D8537)) using an automated plate washer. […]
The next day, the antibody was tipped off and the plates were washed twice with PBS. […] 100 μl PBS was added to each well and the plates were sealed ready to analyse. […]

[2] = tested on: drug-resistant MCF7-ADR human breast tumour cells; assay: In vitro drug-resistant cell phenotype and substrate phosphorylation assay (phosphohistone H3); format: cell-based; settings: NCI/ADR-RES, MCF7-ADR cells overexpressing drug-resistant proteins, read-out: EC50 for inhibition of phosphohistone H3 levels
Protocol: (d) In Vitro Drug-Resistant Cell Phenotype and Substrate Phosphorylation Assay.
This assay is used to determine the cellular effects of compounds on drug-resistant MCF7-ADR human breast tumour cells in vitro.
Compounds typically cause inhibition of levels of phosphohistoneH3 and an increase in the nuclear area of treated cells.
0.8×10^4 MCF7-ADR cells per well were plated in 100 μl DMEM media (containing 10% FCS (foetal calf serum) and 1% glutamine) in costar 96 well plates and left overnight at 37° C. and 5% CO2 to adhere.
All other procedures are identical to those for the above assay using SW620 cells.

[3] = Plasma protein binding assay (equilibrium dialysis); format: in vitro ADME; settings: human plasma, 20 μM compound, dialysed 18 hours at 37° C.
Protocol: (e) Plasma Protein Binding Assay
Plasma protein binding was measured using the equilibrium dialysis technique. Compound was added to human plasma to a concentration of 20 μM and dialysed with isotonic phosphate/sodium chloride buffer for 18 hours at 37° C. The plasma and buffer solutions on each side of the dialysis membrane were analysed using a generic LCUVMS (Waters 2795 HPLC with Micromass ZQ mass spectrometer) and the percentage of free compound in 100% plasma was determined.

With COc1cc(OCCN(C)CCO)c2c(Nc3cc(CC(=O)Nc4cccc(F)c4F)[nH]n3)ncnc2c1 [Compound 9, N-(2,3-difluorophenyl)-2-{3-[(5-{2-[(2-hydroxyethyl)(methyl)amino]ethoxy}-7-methoxyquinazolin-4-yl)amino]-1H-pyrazol-5-yl}acetamide] the EC50 [1] was 7.6 nM, the EC50 [2] was 400 nM and the “percentage of free compound in 100% plasma” value [3] was 3.9%.
